Data taken from US20150148387A1, “METHODS OF TREATMENT, DIAGNOSIS AND […] METHA[…] WHICH TARGET CERAMIDE METABOLIC […] AND […] SENESCENCE” (priority 2012, published 2015).
Entries after “also recorded” stand apart in the source; their conditions may differ. Counter-ions that a name gives are not always drawn. Like-named read-outs stand apart in the source and are kept apart here.

Columns and labels:
[1] = tested on: primary mouse embryonic fibroblasts (MEF); format: cell-based; conditions: for SA-β-gal expression induced by methamphetamine: methamphetamine 1 mM; for amphetamine-induced inflammation and senescence: measured by beta-galactosidase assay, crystal violet morphology, and gene expression of pro-inflammatory and pro-senescence genes
Method: Detection of senescence-associated β-galactosidase staining was performed as previously reported. Briefly, we plated MEFs on Lab-Tek chamber slides at a density of 5×10^4 cells per chamber. Next day, cells were treated with the indicated dose of drug for 48 hours. Cells were washed twice with PBS and fixed in 2% formaldehyde/0.2% glutaraldehyde for five minutes at room temperature. After two PBS washes the slides were incubated with fresh β-galactosidase stain solution (1 mg/mL 5-bromo-4-chloro-3-indoyl β-D-galactoside (X-Gal) 40 mM sodium phosphate, pH 6.0, 5 mM potassium ferrocyanide, 5 mM potassium ferricyanide, 150 mM NaCl, and 2 mM MgCl2) at 37° C. for 12-16 hours. Slides were washed with PBS and mounted with DAPI containing media. Images were taken for the β-gal staining and overlapped with fluorescent images taken of the same region to count the number of cells staining positive for β-gal (Nikon Eclipse E600). More than 200 cells from 5 different regions of a slide were counted in a blind fashion.

[2] = Methamphetamine self-administration in rats: self-administration, body weight, body temperature, food intake; format: in vivo, rat
Method: Each experimental group was divided into two subgroups that were tested simultaneously. One subgroup served as yoked controls and passively received an injection of saline (which was not contingent on responding) each time a response-contingent injection of 0.1 mg/kg methamphetamine was actively self-administered by the first subgroup of rats. […] The first experimental groups consisted of 12 rats self-administering methamphetamine and 6 yoked control rats. The second experimental group consisted of 9 rats self-administering methamphetamine and 9 yoked control rats. The third experimental group consisted of 16 rats self-administering methamphetamine and 8 yoked control rats. […] The pretreatment with L-CS was always given immediately before and after each session and the catheter was flushed with 0.5 ml of saline afterwards. Before and after sessions 4 and 5 animals received dose 10 mg/kg of L-CS and before and after sessions 6, 7, and 8 they received dose 20 mg/kg of L-CS. The animals received total dose 160 mg/kg of L-CS during the experiment. In this group, we also measured three times the rectal temperature. The first measurement was done one the day before the experiment began at 2 pm, the second measurement was done at 2 pm before the eighth session, and the third measurement immediately after the eighth session.
Eight consecutive 15-hour sessions were conducted between 4 p.m. and 8 a.m. Rats and the food in the feeders were weighed before the start of each session. At the start of each session, a white house light was turned on and a priming injection of 0.1 mg/kg methamphetamine (or saline for yoked group), sufficient to fill the “dead” space of the IV catheter, was automatically delivered. Rats learned to self-administer methamphetamine under one-response, fixed ratio schedule (FRI) of i.v. methamphetamine injection with 30-s time-out duration. Each nose-poke response in the active hole (FRI) produced a delivery of an i.v. injection of 0.1 mg/kg of methamphetamine followed by 30-s timeout period, during which the chamber was dark and responses in either hole had no programmed consequences.

[3] = tested on: primary mouse embryonic fibroblasts (MEF); format: cell-based; conditions: for ceramide (d18:1/16:0) content: incubation of MEF with the drug alone
Method: (§1) Cells were washed with ice-cold phosphate-buffered saline (PBS) and scraped into 0.5 ml of methanol/water (1:1, vol:vol) containing the internal standards listed below. Protein concentrations were measured using the BCA protein assay (Pierce, Rockford, Ill., USA). Lipids were extracted with chloroform/methanol (2:1, vol:vol; 1.0 mL). The organic phases were collected, dried under nitrogen and dissolved in methanol for LC/MS analyses.
(§2) Helium was used as collision gas. […] Mobile phase composition was as described above.
(§3) Mouse embryonic fibroblasts (MEFs) were prepared from mice embryo as previously reported. Briefly, pregnant mice at day 13 post coitum were sacrificed and the uteri were dissected out. Each embryo was separated from the placenta and the head and visceral tissues were removed. The remaining body was minced in PBS and incubated with 0.1 mM trypsin/1 mM EDTA at 37° C. for 15 min. Two volumes of Dulbecco's Modified Eagle Medium (DMEM) containing 10% fetal bovine serum (FBS) was added and stood for 5 minutes to settle down large pieces of unbroken tissues. The supernatant was then removed and centrifuged at 200×g for 5 min and suspended in fresh DMEM containing 10% FBS. Cells were cultured at 37° C. with 5% CO2.

[4] = tested on: isolated mitochondria from primary MEF; assay: Lipid analysis of isolated mitochondria from MEF; format: cell-based, mouse
Method: as §1, §2, §3

[5] = tested on: primary mouse embryonic fibroblasts (MEF); assay: Gene expression in MEF; format: cell-based
Method: Total RNA was extracted from frozen tissues using TRIzol reagent (Invitrogen, Carlsbad, Calif.) and was purified with the RNeasy mini kit (Qiagen, Valencia, Calif.). First-strand complementary DNAs were synthesized using SuperScript II RNaseH reverse transcriptase (Invitrogen). Reverse transcription of total RNA (2 μg) was carried out using oligo(dT)12-18 primers for 50 min at 42° C. mRNA levels were measured by quantitative real-time polymerase chain reaction (RT-PCR) with a Mx 3000P system (Stratagene, La Jolla, Calif.). The following list of primers and fluorogenic probes purchased from Applied Biosystems (TaqMan Gene Expression Assays, Foster City, Calif.): Ceramide Synthase 1 (Rn01420081_m1), Ceramide Synthase 2 (Rn01762789_m1), Ceramide Synthase 4 (Rn01767402_m1), Ceramide Synthase 5 (Rn01532864_m1), Ceramide Synthase 6 (Rn01270930_m1), Interleukin-6 (Rn01410330_m1). mRNA levels were normalized using beta actin, 18S ribosomal protein or glyceraldehyde-3-phosphate dehydrogenase as internal standards. Additional PCR primers were designed using Primer 3 (https://www.Frodo.wit.mit.edu), and the sequences are shown in S.Table XXX.
as §3

[6] = tested on: ceramide content and IL-6 and p21 mRNA; assay: Acute experiment in mice: methamphetamine alone or in combination with L-CS
[7] = tested on: de novo ceramide biosynthesis; assay: Methamphetamine self-administration in rats: lipidomic analysis of tissues by LC/MS
Method: Male Sprague-Dawley rats (Charles River, Wilmington, Mass.), weighing approximately 360-440 g at the beginning of the self-administration experiment, were individually housed in a temperature- and humidity-controlled environment under a reversed lighting 12-h light/dark cycle (lights on at 7:00 p.m.). The rats were allowed free access to food (NIH07 biscuits) in their home cage throughout the study. Water was available ad libitum in the home cage and in the testing chamber. Rats were tested in the light phase. They were experimentally and drug naïve at the beginning of this study.
Each of eighteen standard operant-conditioning chambers (Coulbourn Instruments, Lehigh Valley, Pa.) contained a white house light and two holes with nose-poke operanda on either side of a food trough. Upon activation, each nose poke produced a brief feedback tone. […] The tubing was attached to a syringe pump (Harvard Apparatus, South Natick, Mass.), which was programmed to deliver 2-s injections. The injected volume was adjusted for every animal to deliver a methamphetamine dose of 0.1 mg/kg/injection. Experimental events were controlled by microcomputers using MED Associates interfaces and software (Med Associates Inc., East Fairfield, Vt.).
Silastic catheter was implanted into the external jugular vein under anesthesia with a mixture of ketamine and xylazine (60 and 10 mg/kg i.p., respectively). Catheter exited the skin behind the ear. After catheter implantation, a nylon bolt glued to an acrylic mesh was implanted subcutaneously in the midscapular region. The nylon bolt served as a tether, preventing the catheter from being pulled out during self-administration sessions. Following surgery, the IV catheter was flushed daily during the first week with 0.2-0.3 ml of solution containing cephalosporin (100 mg/ml; Cefazolin For Injection, USP; Hospira Inc., Lake Forest, Ill., USA) and then flushed before and after each daily session with saline to maintain its patency) and then flushed after each daily session with saline to maintain its patency.
Each experimental group was divided into two subgroups that were tested simultaneously. One subgroup served as yoked controls and passively received an injection of saline (which was not contingent on responding) each time a response-contingent injection of 0.1 mg/kg methamphetamine was actively self-administered by the first subgroup of rats. […] The first experimental groups consisted of 12 rats self-administering methamphetamine and 6 yoked control rats. The second experimental group consisted of 9 rats self-administering methamphetamine and 9 yoked control rats. The third experimental group consisted of 16 rats self-administering methamphetamine and 8 yoked control rats. […] The pretreatment with L-CS was always given immediately before and after each session and the catheter was flushed with 0.5 ml of saline afterwards. Before and after sessions 4 and 5 animals received dose 10 mg/kg of L-CS and before and after sessions 6, 7, and 8 they received dose 20 mg/kg of L-CS. The animals received total dose 160 mg/kg of L-CS during the experiment.
Eight consecutive 15-hour sessions were conducted between 4 p.m. and 8 a.m. Rats and the food in the feeders were weighed before the start of each session. At the start of each session, a white house light was turned on and a priming injection of 0.1 mg/kg methamphetamine (or saline for yoked group), sufficient to fill the “dead” space of the IV catheter, was automatically delivered. Rats learned to self-administer methamphetamine under one-response, fixed ratio schedule (FRI) of i.v. methamphetamine injection with 30-s time-out duration.

ceramide synthase (CerS) [8] = assay: Methamphetamine self-administration in rats: ceramide synthase activity in tissue; format: in vivo, rat; conditions: self-administering rats; data not shown
Method: (§4) Fresh rat tissues were collected in 1 ml of homogenization buffer (25 mM HEPES, pH 7.4, containing 5 mM EGTA, 50 mM NaF, and complete mini EDTA-free protease inhibitor). Tissues were disrupted using pulse homogenizer, and centrifuged at 800×g for 5 min. The postnuclear supernatant was centrifuged at 250,000×g for 30 min at 4° C. in ultracentrifuge. The microsomal membrane pellet was resuspended in 250-500 μl of homogenization buffer. Protein concentration was measured using the BCA protein assay (Pierce, Rockford, Ill.).
(§5) Ceramide synthase activity was measured at 37° C. for 1 hr in HEPES buffer (20 mM, pH 7.4) containing 2 mM MgCl2, fatty acid-free bovine serum albumin (20 μmol) membrane proteins (0.05-0.1 mg), using dihydrosphingosine (sphinganine d17:0, 20 μmol) and palmitoyl-coenzyme A (70 μmol) as substrates. The reactions were stopped by adding chloroform-methanol (2:1, v/v) containing C12:0 ceramide (d18:1/12:0) as an internal standard. Lipid extracts were dried under nitrogen and reconstituted in chloroform-methanol (1:3, v/v; 0.1 ml) for LC-MS analyses. Products of reaction were measured using an Agilent 1100-LC system coupled to ion-trap XCT and interfaced with ESI (Agilent Technologies). […] For quantification purposes, we monitored the ions at m/z 526.5>508.5 for C17:0 dihydroceramide (d17:0/16:0) and m/z 482.5>464.5>264.3 for C12:0 ceramide (d18:1/12:0).

ceramide synthase (CerS) [9] = assay: Acute methamphetamine administration in rats: ceramide synthase activity; format: in vivo, rat; conditions: non-contingent methamphetamine administration; data not shown
Method: Three groups of rats were used for these experiments. […] Other details are the same as for group 1.
as §4
as §5, with “Lipid extracts were dried under nitrogen and reconstituted in chloroform-methanol (1:3, v/v; 0.1 ml) for LC-MS analyses.” left out

[10] = tested on: primary mouse embryonic fibroblasts (MEF); assay: Crystal violet staining, cell morphology; format: cell-based; conditions: 48 h, 1 mM, passage 2
Method: To study cell morphology, cells were plated and treated in 6-well plates. After fixation, with 4% paraformaldehyde cells were stained with crystal violet (0.5% crystal violet in methanol:PBS, 1:1, v/v). After thorough wash in tap water, images were taken using a Westover Scientific Series 8 microscope.

[11] = tested on: primary mouse embryonic fibroblasts (MEF); assay: Population doubling; format: cell-based; conditions: 1 mM; compared to control cells
Method: We plated 1×10^6 cells on a 60 mm dishes and treated them with 1 mM methamphetamine. Cells were trypsinized and re-plated at the same density (1×10^6 cells/dish) every 3 days for 6 passages. Population doublings were calculated according to the formula log (final cell number/plated cell number/log 2).

[12] = tested on: primary mouse embryonic fibroblasts (MEF); assay: DNA replication assay ([3H]thymidine); conditions: 48 h, 1 mM
[13] = tested on: de novo ceramide biosynthesis; assay: Acute methamphetamine administration in rats: tissue lipid levels
Method: Forty-six male Sprague-Dawley rats (Charles River, Wilmington, Mass.), weighing approximately 360-420 g were used in these experiments.
Three groups of rats were used for these experiments. Group 1: On the day of the experiment, rats received two i.p. injections of methamphetamine, 10 mg/kg (n=6), or saline (n=6) every 2 h. Two hours after the last administration of methamphetamine or saline, rats were euthanized by decapitation. Brain, liver, kidney (left), heart, skin (hind paw), skeletal muscle (vastus lateralis muscle) were harvested. Brains and livers were snap-frozen in isopentane and other tissues were snap-frozen in liquid nitrogen and stored at −80° C. Group 2: On the day of the experiment, rats received two i.p. injections of methamphetamine, 1.5 mg/kg (n=6), or saline (n=6) every 2 h. Other details are the same as for group 1. Group 3: On the day of the experiment, five rats received two i.p. injections of 1.5 mg/kg methamphetamine every 2 h; five rats received two i.p. injections of 5 mg/kg methamphetamine every 2 h; six rats received two i.p. injections of 10 mg/kg D-methamphetamine every 2 h, and six rats received two i.p. injections of saline every 2 h. Two hours after the last injection, blood was collected by cardiac puncture under isoflurane anesthesia and immediately afterwards brain, skeletal muscle and skin were harvested and handled as described for group 1.
Briefly, frozen brain samples were weighed and homogenized in cold methanol containing appropriate internal standards (listed below). Lipids were extracted by adding chloroform and water (2/1, vol/vol) and fractionated through open-bed silica gel columns by progressive elution with chloroform/methanol mixtures. Fractions eluted from the columns were dried under nitrogen, reconstituted in chloroform/methanol (1:4, vol/vol; 0.1 ml) and subjected to LC/MS.
Sphingolipid molecular species were analyzed by tandem mass spectrometry, using an Agilent 1100 liquid chromatography coupled to an ESI-ion-trap XCT mass detector. Dihydroceramides and ceramides were separated on a Poroshell 300 SB C18 column (2.1×75 mm i.d., 5 μm; Agilent Technologies) maintained at 30° C. […] Extracted ion chromatograms were used to quantify the following ceramides: d18:1/16:0 [M+H]^+ (m/z=538.5>520.5>264.3), d18:0/16:0 [M+H]^+ (m/z=540.5>522.5), d18:1/18:0 [M+H]^+ (m/z=566.5>548.5>264.3), d18:0/18:0 [M+H]^+ (m/z=568.5>550.5), d18:1/24:0 [M+H]^+ (m/z=650.6>632.8>2643), d18:0/24:0 [M+H]^+ (m/z=652.6>634.8), d18:1/24:1 [M+H]^+ (m/z=648.6>630.8>264.3), d18:0/24:1 [M+H]^+ (m/z=650.6>632.8), using d18:1/12:0 [M+H]^+ (m/z=482.5>464.5>264.3) as an internal standard. […]

[14] = tested on: primary mouse embryonic fibroblasts (MEF); assay: ROS production in MEF (CM-H2DCFDA); format: cell-based; conditions: CYP inhibitors with methamphetamine
Method: Production of ROS was measured using the fluorescent probe CM-H2DCFDA (Invitrogen). This carboxy derivative of fluorescein carries additional negative charges that improve its retention compared to noncarboxylated forms. For these experiments, MEFs were grown in DMEM without phenol red, for which anti-oxidative properties have been reported. Cells were plated to subconfluence in 12-well plates, washed 3 times with pre-warmed PBS and loaded for 30 min at 37° C./5% CO2 with […] CM-H2DCFDA in DMEM without phenol red (loading medium). Then the loading medium was removed and pre-warmed fresh medium containing the different CYP450 inhibitors in presence or absence of methamphetamine was added. Fluorescence (excitation at 485 nm, emission at 530 nm) was analyzed immediately, cells were incubated at 37° C./5% CO2, and fluorescence was analyzed at the indicated time points. ROS rate versus control (%) was calculated subtracting the percentage of ROS increasing from time zero in the methamphetamine-treated samples to the percentage of ROS increasing from time zero in vehicle-treated samples.

[15] = skeletal muscle, rats self-administering methamphetamine vs controls
[16] = skeletal muscle, self-administering rats vs controls

For `CCCC[C@@H](C)[C@@H](OC(=O)C[C@@H](CC(=O)O)C(=O)O)[C@H](C[C@@H](C)C[C@H](O)CCCC[C@@H](O)C[C@H](O)[C@H](C)N)OC(=O)C[C@@H](CC(=O)O)C(=O)O` [Fumonisin B1], the “expression of SA-β-gal by the cell-permeable ceramide analog C8” value ([1]; C8 in presence of L-CS or FB1) was “neither L-CS nor FB1 blocked” and the “SA-β-gal expression induced by methamphetamine” value ([1]; inhibitor 50 μM) was “suppressed”.

In the case of `N[C@H]1CONC1=O` [L-cycloserine], the “methamphetamine-induced reduction of food intake” value ([2]; L-CS treatment) is reported as “did not alter”, the “meth induced changes in body temperature” value ([2]; L-CS treatment, listed as L-CS) is reported as “did not alter” and the methamphetamine self-administration ([2]; L-CS treatment, listed as L-CS) is reported as “no effect; also recorded: did not alter”. For the same molecule, the “body weight (wasting phenotype)” value ([2]; methamphetamine self-administering animals treated with L-CS, listed as L-CS) was “able to rescue the wasting phenotype; also recorded: corrected the abnormalities in body weight”, the “methamphetamine induced increases in ceramide” value ([3]; primary MEF, inhibitor 30 μM) was “able to block” and the “methamphetamine induced increases in ceramide” value ([4]; isolated mitochondria from primary MEF, inhibitor 30 μM) was “able to block”. For the same molecule, the “methamphetamine-induced increase in the transcription of IL-6, TNF-alpha, p21 and p53” value ([5]; MEF, co-administration with methamphetamine) was “blocked”, the “expression of SA-β-gal by the cell-permeable ceramide analog C8” value [1] was “neither L-CS nor FB1 blocked” and the “amphetamine-induced inflammation and senescence” value [1] was “prevent”. For the same molecule, the “SA-β-gal expression induced by methamphetamine” value ([1]; inhibitor 30 μM) was “suppressed”, the “methamphetamine-induced increase of ceramide” value ([6]; methamphetamine in combination with L-CS) was “block the increase” and the “methamphetamine induced increases in ceramide content” value ([7]; 8 days self-administration, L-CS i.v. from 4 days into the study (10 then 20 mg/kg before and after sessions)) was “blocked”.

For `CN[C@@H](C)Cc1ccccc1.Cl` [L-methamphetamine, L-methamphetamine hydrochloride], the “ceramide (d18:1/16:0) content” value [3] was “no such effect”.

With `O=C1CCC(N2C(=O)c3ccccc3C2=O)C(=O)N1` (stereo not drawn) [thalidomide] the “amphetamine-induced inflammation and senescence” value [1] was “prevent”.

With `CN[C@@H](C)Cc1ccccc1` [methamphetamine, S(+)-methylamphetamine HCl] the CerS activity (ceramide synthase (CerS) [8]) was “increased”, the CerS activity (ceramide synthase (CerS) [9]) was “increased” and the “ceramide (d18:1/16:0) content” value [3] was “increased ceramide (d18:1/16:0) in a dose-dependent manner”. For the same molecule, the “long chain ceramides (d18:1/24:0 and d18:1/24:1)” value ([4]; methamphetamine 1 mM) was “mitochondrial specific increase”, the “short chain ceramide (d18:1/16:0)” value ([4]; methamphetamine 1 mM) was “increases” and the “mRNA levels of the genes involved de novo ceramide biosynthesis” value ([5]; MEF treated with methamphetamine) was “increased”. For the same molecule, the “p21 and p53 transcription” value ([5]; MEF, methamphetamine treatment) was “increase”, the “number of SA-β-gal positive cells” value ([1]; 1 mM, 48 h, passage 1 to 4, vs vehicle-treated cells) was “increased” and the “increase in the number of SA-β-gal positive cells” value ([1]; 1 mM, 48 h, passage 3, versus non-treated cells) was “greater than 4 fold”. The “number of SA-β-gal positive cells” value ([1]; 1 mM, 48 h, passage 5) was “did not further increase”, the cell morphology [10] was “morphological changes typical of senescent phenotype” and the “number of population doublings” value [11] was “decreased”. For the same molecule, the “DNA synthesis, [3H]-thymidine” value [12] was “decreased”, the “striatal levels of various ceramide species” value ([13]; dorsal striatum, 2×10 mg/kg intraperitoneal) was “marked increase” and the “changes in ceramide species” value ([13]; low doses (i.e., non-toxic)) was “did not induce any changes”. For the same molecule, the “ceramide levels in peripheral tissues” value ([13]; plasma, skeletal muscle, heart, liver and skin, 2×10 mg/kg intraperitoneal) was “marked increases”, the “d18:1/16:0 ceramide levels” value ([13]; rat skeletal muscle, intraperitoneal 3, 10, and 20 mg/kg) was “dose-dependent increase” and the ceramide content ([6]; acute treatment with methamphetamine alone) was “increased”. For the same molecule, the “increase in ceramide (d18:1/16:0)” value [7, 15] was 4 fold, the “increase in dihydroceramide (d18:1/16:0)” value [7, 15] was 4 fold and the “levels of dihydrosphingomyelin (d18:1/16:0)” value [7, 16] was “unchanged”. For the same molecule, the “levels of sphingomyelin (d18:1/16:0)” value [7, 16] was “unchanged” and the multiple ceramide species ([7]; various tissues, largest increase in skeletal muscle, heart and liver, methamphetamine-exposed rats vs controls) was “substantially increased”.

With `CCCC(C(=O)OCCN(CC)CC)(c1ccccc1)c1ccccc1` [SKF-525A] the “ceramide formation in D-meth-treated cells” value (from here on “ceramide formation”) ([3]; MEF, inhibitors each at 10 μM) was “normalized” and the “release of ROS evoked by methamphetamine” value [14] was “prevented”.

For `CCCCc1ccc(N=CNO)c(C)c1` [HET-0016], the “ceramide formation” value ([3]; MEF, inhibitors each at 10 μM) was “ineffective”.

With `CN/C(=N/CCSCc1nc[nH]c1C)NC#N` [cimetidine] the “ceramide formation” value [3] was “normalized” and the “release of ROS evoked by methamphetamine” value [14] was “prevented”.

In the case of `C=C[C@H]1C[N@@]2CC[C@H]1C[C@@H]2[C@@H](O)c1ccnc2ccc(OC)cc12` [quinidine], the “ceramide formation” value ([3]; MEF, inhibitors each at 10 μM) is reported as “normalized” and the “release of ROS evoked by methamphetamine” value [14] is reported as “prevented”.

For `C[C@H](N)Cc1ccccc1` [d-amphetamine], the “ceramide (d18:1/16:0) content” value [3] was “modest but statistically significant (p<0.014) increase”.

In the case of TNF-α, the cellular ceramide content ([3]; MEF, TNF-α treatment activating NF-κB) is reported as “mimic the effects of methamphetamine”.
